Source: patent US10428151B2, “Treatment of hematologic malignancies with an anti-CXCR4 antibody” (BRISTOL-MYERS SQUIBB COMPANY, priority 2011, dated 2019)
Where “and” joins values, the source holds several entries; their conditions need not be identical. Identical values can stand only once.

What was measured:
parental R1610 cells = assay: Apoptosis of parental R1610 cells, Annexin V-FITC/PI; assay type: cell-based, hamster; settings: 24 hours
Method: MDX-1338 or isotype control were added to CXCR4-transfected cells (A) or R1610 parental cells (B) and stained with Annexin V-FITC and PI. The percentages of cells that were positive for Annexin V only or doubly positive for both Annexin V and PI double positive are illustrated.
The percent of cells that are positive for Annexin V only or both Annexin V and PI double positive was determined.

MM cells = assay: Apoptotic and CXCL12 signalling pathways in MM cells; assay type: cell-based
Text: The BMS936564 antibody targeted MM cells in the context of BM milieu by overcoming BMSC-induced proliferation of tumor cells. […] Importantly, as described in Example 16, BMS936564 inhibited MM cell proliferation in vivo in xenograft mouse models.

MOLP-8 cells = assay: MOLP-8 MM xenograft in SCID mice; assay type: in vivo
Method: In all the experiments, the mice were injected intraperitoneally on Days 0 and 7 with an IgG4 isotype control and a PBS vehicle control.

RPMI-8226 cells = assay: RPMI-8226 MM xenograft in SCID mice; assay type: in vivo
Method: The mice were randomized (n=8) when the tumor volume reached approximately 20 mm^3, dosed on Days 0, 3, 7, 10 and 14 with MDX-1338 (10 mg/kg/dose) alone or in combination with 50 mg/kg lenalidomide or in combination with 0.8 mg/kg bortezomib.

## BMS-936564: fully human anti-CXCR4 monoclonal antibody; VH SEQ ID NO: 25, VL SEQ ID NO: 29
Parental R1610 cells
  apoptosis of parental R1610 cells: did not exhibit apoptosis
MM cells
  CXCL12-induced ERK-, Aid-, and Src-phosphorylation: inhibited by BMS936564 in a dose-dependent manner
  activation of apoptotic pathways in MM cells: cleavage of caspase-9 and PARP
MOLP-8 cells; Day 25, 10 mg/kg/dose, compared to isotype antibody control, 10 mg/kg
  delay of mean tumor growth: 66% and 56%
MOLP-8 cells; MOLP8
  tumor growth inhibition: MDX-1338 = 56%
MOLP-8 cells; MOLP-8
  % Tumor Growth Inhibition (Monotherapy): 66%
MOLP-8 cells; day 42
  mice remained at end of study: 5 out of 8
RPMI-8226 cells; Day 44, 10 mg/kg/dose, compared to vehicle control
  delay of mean tumor growth: 53%
RPMI-8226 cells; Day 44, compared to isotype control, MDX-1338 10 mg/kg, lenalidomide 50 mg/kg, bortezomib 0.8 mg/kg
  mean tumor growth inhibition: 61%
RPMI-8226 cells; RPMI-8226
  tumor growth inhibition: MDX-1338 = 61%
